Consider 3 molecules from US20250271361A1, “SUPERCONTINUUM INTRINSIC FLUORESCENCE IMAGING” (The Board of Trustees of the University of Illinois, priority 2024, published 2025).

For data set [1], the system named is hamster kidney fibroblast cells BHK-21. In words: SCIFI/SOMI endpoint (snapshot) imaging assay of in vitro hamster kidney cells treated with a drug or imaging agent. The class given is cell-based, Syrian golden hamster. As to the method: Next, the interaction between in vitro hamster kidney cells with a drug or imaging agent were evaluated.
Power-dependent “imaging” experiments were conducted on the prepared solutions and coverslip across the six colors by an excitation that would be standardized for biological imaging. […] For the 6-color SOMI images (1024×1024 pixels) collected from a biological sample, the raw intensity image of each color was converted into a photon-count image (unit: photon/pulse) using the established (calibrated) relation for that color at the same photomultiplier gain. Then, some (2-72) discernable single cells or cell clusters were manually segmented in the 6-color photon-count images. Finally, the SOMI intensity profiles of segmented single cells (or cell clusters) averaged over the corresponding pixels were obtained after a background subtraction. Specifically, the background of the culture medium in the empty space among the segmented cells was subtracted for 2D cell culture samples while the background with blocked illumination was subtracted for all 3D (tissue) samples.
In contrast to reductionism-based imaging, the lack of FLIM capability for general fluorescence imaging presented another challenge that may have contributed to the low popularity of comparative systems biology-based imaging strategies. Due to the high dynamic range of SOMI in gentle biological imaging, comparative photon counting of FLIM with low dynamic range (<0.2 photon/pulse, typically) cannot be used. To recover this capability, time-resolved photon counts were determined using computational photon counting, which provides single-photon accuracy for signals with high dynamic range. The output of three analog output photomultipliers for 4PAF, 3PAF, and 2PAF was optionally amplified with a high-speed transimpedance amplifier (C5594, Hamamatsu), and digitized at 2 GS/s with a high-speed digitizer (ATS9373, AlazarTech). Digitized values were saved, and photon-counting and lifetime information was computed in post-processing using custom MATLAB scripts (Mathworks). FLIM for the 2PAF and 3PAF colors were validated using NADH, FAD, and other standard dyes. To calibrate computational photon counting for 4PAF, Trp solutions from 0 to 50 mM were examined and a single-photon peak threshold was determined based on the peak height histogram to ensure a linear relationship between intensity and concentration over this range. After computational photon counting, mean fluorescence lifetime and phasor components g and s were determined by phasor analysis. For single-cell quantification, all fluorescence decays within a segmented cell were summed together, and one mean fluorescence lifetime was estimated from the total decay, along with one g and one s value.
(§1) In the above experiments (e.g., in the procedures used to generate the images described above), the following materials and methods were provided or performed. Adherent Syrian golden hamster kidney fibroblast cells BHK-21 (clone 13, ATCC CCL-10) were cultured in phenol red-free Eagle's Minimum Essential Medium (EMEM) supplemented with 10% FBS, 1% penicillin-streptomycin-amphotericin B (PSA), and 2.5 mM L-Glutamine at 37° C. under 5% CO2, and atmospheric O2 conditions. Before imaging, 1 mL of trypsinized cells was resuspended in 1 mL of 1×TrypLE™ Select Enzyme cell dissociation reagent (TFS, Cat #12563029). The cells were plated on poly-D-lysine coated 35-mm diameter glass-bottom imaging dishes and maintained inside a humidified incubator with 5% CO2 and 21% O2 conditions at 37° C. The incubation time varied between 1-6 hours while the culture media might be supplemented with specific drugs or labeling agents at […] concentrations. The cells were imaged within 10 min of being taken out of the incubator.

For data set [2], the system named is live BHK-21 cells. In words: time-lapse kinetic imaging assay (single-cell pharmacokinetic SOMI) of hamster kidney cells after transient exposure. The settings on record: for cellular uptake by endocytosis via THG-visible nanovesicles: comparative kinetic assays of two mitochondrial uncouplers. As to the method:
as §1
Large area or 3D SOMI was enabled by a motorized sample stage. Without moving the stage, time-lapse imaging of dynamic phenomenon or frame-averaged imaging of static samples were conducted in a constant field-of-view. Single-cell pharmacokinetics imaging was performed in a time-lapse SOMI of 200-frame period at the center of a 35-mm diameter glass-bottom imaging culture dish with 2 mL culture media of live BHK-21 cells. During the imaging near the 50-frame timepoint, 0.1 mL of preprepared concentrated solution of a drug (BAM15/FCCP) or labeling agent (AP3) was injected in ˜1 s by a mounted pipette into the center of the dish, attaining an ending/equilibrium concentration of […]. The fluorescence from AP3 in a segmented empty space among the cells was used to detect the transient concentration profile of injected drugs and labeling agents during the time-lapse imaging.

Data set [3] has as its system live BHK-21 cells. The settings on record: statement of general knowledge, explained by the kinetic assay; cited from earlier work.
The mark [4] stands for this setting: apoptotic hamster kidney cells, endpoint assay.

As for `Fc1ccccc1Nc1nc2nonc2nc1Nc1ccccc1F` [BAM15], the “LFI (lipofuscin fluorescence independence extent)” value in data set [1] (in vitro hamster kidney cells, endpoint assay, control 32%) is 44%. The “cytotoxicity sensed in real-time by 4PIF” value in the data set on live BHK-21 cells [2] (at a high concentration, transient exposure) is reported as “confirmed”. The “rise in FAD* coinciding with sudden decrease in ETC” value in the data set with live BHK-21 cells [2] (both BAM15 concentrations, kinetic assay) was approximately 10 fold. In addition, the “induced FAD* in cytoplasm, BAM15 compared with FCCP” value in the data set on live BHK-21 cells [2] (comparative kinetic assays) is reported as “surprisingly larger”. The “cellular uptake by endocytosis via THG-visible nanovesicles” value in the data set on live BHK-21 cells [2] is given as “might enable cellular uptake”. In addition, the “toxicity in mitochondrial uncoupling, compared with FCCP” value with live BHK-21 cells [3] is recorded as “less toxic than FCCP”.

Regarding `N#CC(C#N)=NNc1ccc(OC(F)(F)F)cc1` [FCCP], the “cellular uptake by endocytosis via THG-visible nanovesicles” value with live BHK-21 cells [2] is “not”.

With `CN[C@@H]1C[C@H]2O[C@@](C)([C@@H]1OC)n1c3ccccc3c3c4c(c5c6ccccc6n2c5c31)C(=O)NC4` [STS, staurosporine], in data set [1] (setting [4]), the “LFI versus treatment-free control” value was “retained a low LFI” and the “ORR (optical redox ratio) versus treatment-free control” value is given as “reduced ORR”. Besides, the “LFR (LOP-to-FAD ratio)” value in data set [1] (in vitro STS-induced apoptosis confirmed by single-cell morphological change) was “increase in LFR”. The “apoptosis via modified cell morphology” value in data set [1] (in vitro hamster kidney cells, endpoint assay, different fields) is on record as “induced apoptosis”. Further, the “3PIF (NADH) in 6-color profile” value in data set [1] (in vitro hamster kidney cells, label-free biomarker of apoptosis) was “peaked”. The “color through which cells respond” value in the data set on live BHK-21 cells [2] (transient exposure, kinetic assay) was determined as 3PIF/NADH but not THG.
